# Test results from patent US20230212210A1 (priority 2020, published 2023).
# Legend:
# DC-SIGN = biological target: T1, DC-SIGN (Homo sapiens, UniProt Q9NNX6); assay: Binding of DC-SIGN to an HMO chip; settings: Cy3-labelled DC-SIGN
# T1 sequence (Q9NNX6 1-404): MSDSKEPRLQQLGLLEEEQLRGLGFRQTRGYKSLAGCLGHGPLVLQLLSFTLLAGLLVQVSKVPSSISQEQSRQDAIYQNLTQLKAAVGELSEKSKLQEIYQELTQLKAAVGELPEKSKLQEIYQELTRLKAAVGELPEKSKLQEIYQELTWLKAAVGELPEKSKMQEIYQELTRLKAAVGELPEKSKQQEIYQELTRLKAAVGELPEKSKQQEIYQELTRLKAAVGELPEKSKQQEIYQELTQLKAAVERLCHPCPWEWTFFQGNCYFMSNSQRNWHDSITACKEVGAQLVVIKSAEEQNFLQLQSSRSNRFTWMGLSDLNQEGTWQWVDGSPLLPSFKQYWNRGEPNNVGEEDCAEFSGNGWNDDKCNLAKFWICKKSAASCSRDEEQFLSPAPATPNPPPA
# S1 subunit of SARS-CoV-2 = S1 subunit of SARS-CoV-2 (Severe acute respiratory syndrome coronavirus 2, UniProt P0DTC2)
# [1] = biological target: S1 subunit (the S1 protein) of SARS-CoV-2 binding to 16HBE cells (bronchial epithelial cells) (Severe acute respiratory syndrome coronavirus 2, UniProt P0DTC2); format: cell-based; settings: 40 μM chondroitin sulfate, 20 μM fucoidan, 1 h pre-incubation; confocal microscopy
# [2] = system: SARS-CoV-2 pseudovirus in Vero-E6 cells; format: cell-based
# [3] = biological target: S1 subunit (the S1 protein) of SARS-CoV-2 binding to African green monkey kidney cells (Vero-E6 cells) (Severe acute respiratory syndrome coronavirus 2, UniProt P0DTC2); format: cell-based; settings: fixed cells pre-incubated with sugar chain 1 h, S1 subunit 1 μM
# [4] = biological target: S1 subunit (the S1 protein) of SARS-CoV-2 binding to lung epithelial cells (BEAS-2B cells) (Severe acute respiratory syndrome coronavirus 2, UniProt P0DTC2); format: cell-based; settings: fixed cells pre-incubated with sugar chain 1 h, S1 subunit 1 μM
compound,measurement,setting,value
"CC(=O)N[C@H]1[C@H](O[C@H]2[C@@H](O)[C@@H](CO)O[C@@H](O[C@H]3[C@H](O)[C@@H](O)C(O)O[C@@H]3CO)[C@@H]2O)O[C@H](CO)[C@@H](O[C@@H]2O[C@@H](C)[C@@H](O)[C@@H](O)[C@@H]2O)[C@@H]1O[C@@H]1O[C@H](CO)[C@H](O)[C@H](O)[C@H]1O (stereo partly drawn) [HMO13, Galβ1-3(Fucα1-4)GlcNAcβ1-3Galβ1-4Glc]","Binding of DC-SIGN to an HMO chip, RFU",DC-SIGN,1896.5 RFU
"CC(=O)N[C@H]1[C@H](O[C@H]2[C@@H](O)[C@@H](CO)O[C@@H](O[C@H]3[C@H](O)[C@@H](O)C(O)O[C@@H]3CO)[C@@H]2O)O[C@H](CO)[C@@H](O[C@@H]2O[C@H](CO)[C@H](O)[C@H](O)[C@H]2O)[C@@H]1O[C@@H]1O[C@@H](C)[C@@H](O)[C@@H](O)[C@@H]1O (stereo partly drawn) [HMO14, Galβ1-4(Fucα1-3)GlcNAcβ1-3Galβ1-4Glc]","Binding of DC-SIGN to an HMO chip, RFU",DC-SIGN,2125.34 RFU
"CC(=O)N[C@@H]1[C@@H](O[C@@H]2O[C@H](CO)[C@H](O)[C@H](O)[C@H]2O)[C@@H](O)[C@@H](CO[C@@H]2O[C@H](CO)[C@@H](O)[C@H](O)[C@H]2NC(C)=O)O[C@@H]1O [O23, GlcNAcβ1-6(Galβ1-3)GalNAcα]","Binding of the S1 subunit of a virus to an O-sugar chain chip, RFU",S1 subunit of SARS-CoV-2,69.84 RFU
"CC(=O)N[C@@H]1[C@@H](O[C@@H]2O[C@H](CO)[C@@H](O[C@@H]3O[C@H](CO)[C@H](O)[C@H](O)[C@H]3O[C@@H]3O[C@@H](C)[C@@H](O)[C@@H](O)[C@@H]3O)[C@H](O[C@@H]3O[C@@H](C)[C@@H](O)[C@@H](O)[C@@H]3O)[C@H]2NC(C)=O)[C@@H](O)[C@@H](CO)O[C@@H]1O [O33, Fucα1-2Galβ1-4(Fucα1-3)GlcNAcβ1-3GalNAcα]","Binding of the S1 subunit of a virus to an O-sugar chain chip, RFU",S1 subunit of SARS-CoV-2,6320.17 RFU
"CC(=O)N[C@@H]1[C@@H](O[C@@H]2O[C@H](CO)[C@@H](O)[C@H](O)[C@H]2NC(C)=O)[C@@H](O)[C@@H](CO[C@@H]2O[C@H](CO)[C@@H](O)[C@H](O)[C@H]2NC(C)=O)O[C@@H]1O [O39, GlcNAcβ1-6(GlcNAcβ1-3)GalNAcα]","Binding of the S1 subunit of a virus to an O-sugar chain chip, RFU",S1 subunit of SARS-CoV-2,136.5 RFU
Fucα1-2Gal 1-4GlcNAcβ1-3Galβ1-4Glc [HMO15],"Binding of DC-SIGN to an HMO chip, RFU",DC-SIGN,1683.84 RFU
Fucα1-2Galβ1-4(Fucα1-3)GlcNAcβ1-3Gal 1-4Glc [HMO16],"Binding of DC-SIGN to an HMO chip, RFU",DC-SIGN,2537.92 RFU
Fucα1-2Galβ1-4(Fucα1-3)GlcNAcβ1-3Galβ1-3GalNAcα [O20],"Binding of the S1 subunit of a virus to an O-sugar chain chip, RFU",S1 subunit of SARS-CoV-2,304.5 RFU
Fucα1-2Galβ1-4(Fucα1-3)GlcNAcβ1-6(Fucα1-2Galβ1-4(Fucα1-3)GlcNAcβ1-3)Galβ1-4Glc [HMO46],"Binding of DC-SIGN to an HMO chip, RFU",DC-SIGN,2425.92 RFU
Fucα1-2Galβ1-4Glc [HMO3],"Binding of DC-SIGN to an HMO chip, RFU",DC-SIGN,2930.75 RFU
Fucα1-2Galβ1-4GlcNAcβ1-6(Fucα1-2Galβ1-4GlcNAcβ1-3)Galβ1-4Glc [HMO45],"Binding of DC-SIGN to an HMO chip, RFU",DC-SIGN,838.42 RFU
Galα1-3(Fucα1-2)Galβ1-4GlcNAcβ1-3NAcα [O36],"Binding of the S1 subunit of a virus to an O-sugar chain chip, RFU",S1 subunit of SARS-CoV-2,320.5 RFU
Galβ1-4(Fucα1-3)Glc [HMO2],"Binding of DC-SIGN to an HMO chip, RFU",DC-SIGN,2329.09 RFU
Galβ1-4(Fucα1-3)GlcNAcβ1-6(Galβ1-4GlcNAcβ1-3)Gal 1-4Glc [HMO43],"Binding of DC-SIGN to an HMO chip, RFU",DC-SIGN,1196.59 RFU
Galβ1-4(Fucα1-3)GlcNAcβ1-6(GlcNAcβ1-3)Gal 1-4Glc [HMO36],"Binding of DC-SIGN to an HMO chip, RFU",DC-SIGN,1707.42 RFU
Galβ1-4GlcNAcβ1-6(Fucα1-2Gal 1-4GlcNAcβ1-3)Gal 1-4Glc [HMO40],"Binding of DC-SIGN to an HMO chip, RFU",DC-SIGN,801.5 RFU
GlcNAcβ1-6[Fucα1-2Galβ1-4(Fucα1-3)GlcNAcβ1-3]Galβ1-4Glc [HMO33],"Binding of DC-SIGN to an HMO chip, RFU",DC-SIGN,1913.59 RFU
GlcNAcβ1-6[Galβ1-4(Fucα1-3)GlcNAcβ1-3]Galβ1-4Glc [HMO31],"Binding of DC-SIGN to an HMO chip, RFU",DC-SIGN,2175.59 RFU
Neu5Acα2-3Galβ1-4GlcNAcβ1-3GalNAcα [O29],"Binding of the S1 subunit of a virus to an O-sugar chain chip, RFU",S1 subunit of SARS-CoV-2,2866.34 RFU
Neu5Acα2-6Galβ1-4GlcNAcβ1-3(Neu5Acα2-6Galβ1-3GlcNAcβ1-6)GalNAcα [O83],"Binding of the S1 subunit of a virus to an O-sugar chain chip, RFU",S1 subunit of SARS-CoV-2,6012.67 RFU
fucoidan,blocking of the binding of the S1 protein to bronchial epithelial cells (16HBE),[1],successfully block
same,inhibition activity to pseudovirus invasion and infection of the cells,[2],exhibit an inhibition activity
same,blocking of the binding of the S1 subunit to Vero-E6 cells,[3],can block
same,blocking of the binding of the S1 subunit to BEAS-2B cells,[4],can block
nadroparin calcium,inhibition activity to pseudovirus invasion and infection of the cells,[2],exhibit an inhibition activity
same,blocking of the binding of the S1 subunit to Vero-E6 cells,[3],can block
same,blocking of the binding of the S1 subunit to BEAS-2B cells,[4],can block
sodium chondroitin sulfate,blocking of the binding of the S1 protein to bronchial epithelial cells (16HBE),[1],successfully block
sodium heparin sulfate,blocking of the binding of the S1 subunit to Vero-E6 cells,[3],can block
same,blocking of the binding of the S1 subunit to BEAS-2B cells,[4],can block
